From patent US20220041647A1, “ESTRA-1,3,5(10)-TRIENE COMPOUNDS CONDENSED IN POSITION 16(17) WITH A PYRAZOLE RING AS INHIBITORS OF 17-HSD1” (FORENDO PHARMA LTD, priority 2018, published 2022) come the findings set out here.

Common to all, as to assay type: biochemical
Experiment [1] concerns the target T1, recombinant human 17β-HSD2 (Homo sapiens, UniProt P37059).
T1 construct: made in house; host or cells: Sd9 (Sf9) insect cells, baculovirus (Bac to Bac Expression System)
T1 sequence (P37059 1-387): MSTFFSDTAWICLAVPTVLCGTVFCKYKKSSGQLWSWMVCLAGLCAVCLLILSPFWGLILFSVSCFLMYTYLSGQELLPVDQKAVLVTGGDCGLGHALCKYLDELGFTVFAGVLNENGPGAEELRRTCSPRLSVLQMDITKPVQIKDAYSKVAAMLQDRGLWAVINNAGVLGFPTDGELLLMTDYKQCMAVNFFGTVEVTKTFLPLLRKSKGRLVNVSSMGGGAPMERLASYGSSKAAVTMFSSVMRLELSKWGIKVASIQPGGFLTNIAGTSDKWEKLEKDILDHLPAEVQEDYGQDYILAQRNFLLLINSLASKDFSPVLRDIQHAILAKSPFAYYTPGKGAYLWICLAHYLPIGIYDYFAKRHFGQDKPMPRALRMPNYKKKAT
Kind of experiment: Inhibition of recombinant human 17β-HSD2 (estradiol to estrone conversion, HPLC/radioactivity). As to conditions: compound 1 μM; 50 nM estradiol, 1 mM NADH, 30 min RT. In short, it runs like this: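 Membrane extract of Sf9 cells expressing recombinant human 17β-HSD2 (4 μg/ml), in 20 mM KH2PO4 pH 8.5 with 50 nM ^3H-spiked estradiol and 1 mM NADH, 30 min at RT, 1% DMSO. Compound at 1 μM or 0.1 μM; estrone formation by HPLC radioactivity, % inhibition relative to uninhibited conversion.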

The target in experiment [2] is T2, recombinant human 17β-HSD1 (Homo sapiens, UniProt P14061).
T2 construct: made in house; host or cells: Sd9 (Sf9) insect cells, baculovirus (Bac to Bac Expression System)
T2 sequence (P14061 1-328): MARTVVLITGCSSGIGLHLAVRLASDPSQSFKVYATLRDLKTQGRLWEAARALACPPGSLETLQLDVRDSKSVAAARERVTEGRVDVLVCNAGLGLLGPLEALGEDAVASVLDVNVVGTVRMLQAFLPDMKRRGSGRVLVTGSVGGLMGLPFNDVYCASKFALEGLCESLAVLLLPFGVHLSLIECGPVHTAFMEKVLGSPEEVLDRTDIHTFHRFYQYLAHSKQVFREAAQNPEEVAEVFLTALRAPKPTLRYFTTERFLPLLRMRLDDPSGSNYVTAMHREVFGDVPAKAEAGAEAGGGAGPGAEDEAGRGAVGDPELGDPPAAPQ
The experiment is described as follows: Inhibition of recombinant human 17β-HSD1 (estrone to estradiol conversion, HPLC/radioactivity). The following applies: compound 100 nM; 30 nM estrone, 1 mM NADPH, 30 min RT. In a few lines:
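Microsomal human 17β-HSD1 from Sf9 baculovirus (1 μg/ml) was incubated 30 min at RT in 20 mM KH2PO4 pH 7.4 with 30 nM ^3H-estrone, 1 mM NADPH and inhibitor at 1 μM or 0.1 μM (1% DMSO). Estrone and estradiol were separated by HPLC with radioactivity detection. % inhibition = 100 − % conversion relative to uninhibited control.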

Experiment [3] relates to HSD1 enzyme that is expressed in rabbit placenta tissue. The experiment is described as follows: Inhibition of E1 to E2 conversion in rabbit placenta tissue homogenate. As to conditions: compound 100 nM, 30 nM estrone, 1 mM β-NADPH, 30 min. In a few lines:
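Rabbit placenta homogenate (20 mM KH2PO4, 1 mM EDTA, pH 7.4) incubated 30 min with 1 mM β-NADPH, 30 nM estrone plus 5 nM [3H]-estrone tracer, and inhibitor at 1 μM or 0.1 μM (1% DMSO). Stopped with TCA; estrone and estradiol resolved by HPLC with scintillation counting; % inhibition = 100 − % conversion relative to uninhibited control.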

The inhibition is the relative decrease from the control value, in per cent. For the compound `CN1CCN(c2ccc(NC(=O)CC[C@@H]3c4c[nH]nc4[C@@]4(C)CCC5c6ccccc6CCC5C34)nc2)CC1` (stereo partly drawn) [Compound 198, 3-((8aS,12S)-8a-methyl-1,2,6b,7,8,8a,10,12,12a,12b-decahydronaphtho[2′,1′:4,5]indeno[1,2-c]pyrazol-12-yl)-N-(5-(4-methylpiperazin-1-yl)pyridin-2-yl)propanamide], in experiment [1], the inhibition at 1 µM was determined as 18%. The inhibition at 0.1 µM in experiment [2] was found to be 88%. The “Rabbit placenta inhibition % @100 nM” value in experiment [3] amounted to 77%.

With `C[C@]12CCC3c4ccccc4CCC3C1[C@H](CCC(=O)NC1CCOCC1)c1c[nH]nc12` (stereo partly drawn) [Compound 153, 3-((8aS,12S)-8a-methyl-1,2,6b,7,8,8a,10,12,12a,12b-decahydronaphtho[2′,1′:4,5]indeno[1,2-c]pyrazol-12-yl)-N-(tetrahydro-2H-pyran-4-yl)propanamide], in experiment [1], the inhibition at 1 µM is 4%. Also, in experiment [2], the inhibition at 0.1 µM stood at 85%. The “Rabbit placenta inhibition % @100 nM” value in experiment [3] came out at 10%.

In the case of `COc1ccc(NC(=O)CC[C@@H]2c3c[nH]nc3[C@@]3(C)CCC4c5ccc(F)cc5CCC4C23)nn1` (stereo partly drawn) [Compound 108, 3-((8aS,12S)-4-fluoro-8a-methyl-1,2,6b,7,8,8a,10,12,12a,12b-decahydronaphtho[2′,1′:4,5]indeno[1,2-c]pyrazol-12-yl)-N-(6-methoxypyridazin-3-yl)propanamide], the inhibition at 1 µM in experiment [1] is -2%. Further, in experiment [2], the inhibition at 0.1 µM was determined as 56%. The “Rabbit placenta inhibition % @100 nM” value in experiment [3] was 45%.

For the compound `C[C@]12CCC3c4ccc(Cl)cc4CCC3C1[C@H](CCC(=O)Nc1cccc(F)n1)c1c[nH]nc12` (stereo partly drawn) [Compound 135, 3-((8aS,12S)-4-chloro-8a-methyl-1,2,6b,7,8,8a,10,12,12a,12b-decahydronaphtho[2,1′:4,5]indeno[1,2-c]pyrazol-12-yl)-N-(6-fluoropyridin-2-yl)propanamide], the inhibition at 1 µM in experiment [1] worked out at 2%. Besides, the inhibition at 0.1 µM in experiment [2] is 86%. In addition, the “Rabbit placenta inhibition % @100 nM” value in experiment [3] was found to be 31%.

With `Cc1ccnc(NC(=O)CC[C@@H]2c3c[nH]nc3[C@@]3(C)CCC4c5cccc(F)c5CCC4C23)c1` (stereo partly drawn) [Compound 27, 3-((8aS,12S)-3-fluoro-8a-methyl-1,2,6b,7,8,8a,10,12,12a,12b-decahydronaphtho[2′,1′:4,5]indeno[1,2-c]pyrazol-12-yl)-N-(4-methylpyridin-2-yl)propanamide], the inhibition at 1 µM in experiment [1] is 2%. Moreover, the inhibition at 0.1 µM in experiment [2] was determined as 96%. Besides, in experiment [3], the “Rabbit placenta inhibition % @100 nM” value is 55%.

For `CN(C)C(=O)c1ccc(NC(=O)CC[C@@H]2c3c[nH]nc3[C@@]3(C)CCC4c5ccccc5CCC4C23)nc1` (stereo partly drawn) [Compound 183, N,N-dimethyl-6-(3-((8aS,12S)-8a-methyl-1,2,6b,7,8,8a,10,12,12a,12b-decahydronaphtho[2′,1′:4,5]indeno[1,2-c]pyrazol-12-yl)propanamido)nicotinamide], in experiment [1], the inhibition at 1 µM was 10%. Further, the inhibition at 0.1 µM in experiment [2] was 91%. Also, the “Rabbit placenta inhibition % @100 nM” value in experiment [3] was 50%.

Regarding `C[C@]12CCC3c4ccccc4CCC3C1[C@H](CCC(=O)N1CCC3(CCOCC3)C1)c1c[nH]nc12` (stereo partly drawn) [Compound 177, 3-((8aS,12S)-8a-methyl-1,2,6b,7,8,8a,10,12,12a,12b-decahydronaphtho[2′,1′:4,5]indeno[1,2-c]pyrazol-12-yl)-1-(8-oxa-2-azaspiro[4.5]decan-2-yl)propan-1-one], the inhibition at 1 µM in experiment [1] worked out at 4%. The inhibition at 0.1 µM in experiment [2] was 89%. The “Rabbit placenta inhibition % @100 nM” value in experiment [3] is reported as 16%.

In the case of `C[C@]12CCC3c4ccc(Cl)cc4CCC3C1[C@H](CCC(=O)Nc1cc(F)ccn1)c1c[nH]nc12` (stereo partly drawn) [Compound 129, 3-((8aS,12S)-4-chloro-8a-methyl-1,2,6b,7,8,8a,10,12,12a,12b-decahydronaphtho[2′1′:4,5]indeno[1,2-c]pyrazol-12-yl)-N-(4-fluoropyridin-2-yl)propanamide], the inhibition at 1 µM in experiment [1] is 8%. Besides, in experiment [2], the inhibition at 0.1 µM is 84%. Further, the “Rabbit placenta inhibition % @100 nM” value in experiment [3] is given as 28%.

Take `C[C@]12CCC3c4cccc(F)c4CCC3C1[C@H](CCC(=O)NN1CCCCC1)c1c[nH]nc12` (stereo partly drawn) [Compound 69, 3-((8aS,12S)-3-fluoro-8a-methyl-1,2,6b,7,8,8a,10,12,12a,12b-decahydronaphtho[2′,1′:4,5]indeno[1,2-c]pyrazol-12-yl)-N-(piperidin-1-yl)propanamide]: the inhibition at 1 µM in experiment [1] was determined as 1%. For the same compound, the inhibition at 0.1 µM in experiment [2] was 93%. Moreover, in experiment [3], the “Rabbit placenta inhibition % @100 nM” value was 10%.

Take `C[C@]12CCC3c4ccc(F)cc4CCC3C1[C@H](CCC(=O)Nc1cnccn1)c1c[nH]nc12` (stereo partly drawn) [Compound 120, 3-((8aS,12S)-4-fluoro-8a-methyl-1,2,6b,7,8,8a,10,12,12a,12b-decahydronaphtho[2′,1′:4,5]indeno[1,2-c]pyrazol-12-yl)-N-(pyrazin-2-yl)propanamide]: in experiment [1], the inhibition at 1 µM came to 4%. In experiment [2], the inhibition at 0.1 µM was 67%. The “Rabbit placenta inhibition % @100 nM” value in experiment [3] was determined as 34%.

For `Cc1cc(NC(=O)CC[C@@H]2c3c[nH]nc3[C@@]3(C)CCC4c5cccc(F)c5CCC4C23)no1` (stereo partly drawn) [Compound 78, 3-((8aS,12S)-3-fluoro-8a-methyl-1,2,6b,7,8,8a,10,12,12a,12b-decahydronaphtho[2′,1′:4,5]indeno[1,2-c]pyrazol-12-yl)-N-(5-methylisoxazol-3-yl)propanamide], in experiment [1], the inhibition at 1 µM was found to be 3%. Besides, the inhibition at 0.1 µM in experiment [2] worked out at 87%. Also, the “Rabbit placenta inhibition % @100 nM” value in experiment [3] stood at 39%.

In the case of `Cn1ccc(NC(=O)CC[C@@H]2c3c[nH]nc3[C@@]3(C)CCC4c5ccccc5CCC4C23)n1` (stereo partly drawn) [Compound 186, 3-((8aS,12S)-8a-methyl-1,2,6b,7,8,8a,10,12,12a,12b-decahydronaphtho[2′,1′:4,5]indeno[1,2-c]pyrazol-12-yl)-N-(1-methyl-1H-pyrazol-3-yl)propanamide], in experiment [1], the inhibition at 1 µM is 1%. The inhibition at 0.1 µM in experiment [2] was found to be 81%. Further, the “Rabbit placenta inhibition % @100 nM” value in experiment [3] came out at 11%.

Turning to `Cn1cc(NC(=O)CC[C@@H]2c3c[nH]nc3[C@@]3(C)CCC4c5cccc(F)c5CCC4C23)cn1` (stereo partly drawn) [Compound 63, 3-((8aS,12S)-3-fluoro-8a-methyl-1,2,6b,7,8,8a,10,12,12a,12b-decahydronaphtho[2′,1′:4,5]indeno[1,2-c]pyrazol-12-yl)-N-(1-methyl-1H-pyrazol-4-yl)propanamide], in experiment [1], the inhibition at 1 µM stood at 2%. In addition, the inhibition at 0.1 µM in experiment [2] is 96%. For the same compound, the “Rabbit placenta inhibition % @100 nM” value in experiment [3] came to 62%.

In the case of `COc1ccc(NC(=O)CC[C@@H]2c3c[nH]nc3[C@@]3(C)CCC4c5cccc(F)c5CCC4C23)nn1` (stereo partly drawn) [Compound 6, 3-((8aS,12S)-3-fluoro-8a-methyl-1,2,6b,7,8,8a,10,12,12a,12b-decahydronaphtho[2′,1′:4,5]indeno[1,2-c]pyrazol-12-yl)-N-(6-methoxypyridazin-3-yl)propanamide], in experiment [1], the inhibition at 1 µM worked out at 8%. Also, the inhibition at 0.1 µM in experiment [2] amounted to 93%. Further, in experiment [3], the “Rabbit placenta inhibition % @100 nM” value came out at 86%.

For the compound `CC(C)(C)c1cc(NC(=O)CC[C@@H]2c3c[nH]nc3[C@@]3(C)CCC4c5ccc(F)cc5CCC4C23)no1` (stereo partly drawn) [Compound 102, N-(5-(tert-butyl)isoxazol-3-yl)-3-((8aS,12 S)-4-fluoro-8a-methyl-1,2,6b,7,8,8a,10,12,12a,12b-decahydronaphtho[2′,1′:4,5]indeno[1,2-c]pyrazol-12-yl)propanamide], in experiment [1], the inhibition at 1 µM was found to be 8%. In addition, in experiment [2], the inhibition at 0.1 µM came to 80%. Moreover, the “Rabbit placenta inhibition % @100 nM” value in experiment [3] is recorded as 19%.
